According to patent publication US20260285888A1, “HETEROCYCLIC COMPOUND AND USE THEREOF” (OTSUKA PHARMACEUTICAL CO., LTD., priority 2023, published 2026):

Assays:
[1] = in vitro; type: cell-based, human; conditions: human, differentiated hl-60 cells, 300 μmol/L, about 24 hours, PMA-differentiated HL-60 cells, LDH; no-treatment 0%, cell lysis buffer 100%; read-out: cytotoxicity (%) Evaluation compound results
In short: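 HL-60 cells differentiated ~72 h with 10 nM PMA, then exposed ~24 h to compound at 300 μmol/L final in RPMI with 2% FBS. LDH release in supernatant gave cytotoxicity % scaled between untreated (0%) and lysis-buffer (100%) groups; triplicate.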

[2] = Study for confirmation of conversion to brexpiprazole in a buffer (stability of the evaluation compounds); type: physicochemical; conditions: in buffer, average of duplicate; for Concentration of brexpiprazole formed: 60-minute reaction sample; for Concentration of evaluation compound decreased: decrease in 60-minute vs 0-minute reaction sample
In short: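 Compounds (final 1 μmol/L, from 100 μmol/L working solutions) incubated in buffer at 37° C. for 0 or 60 min, in duplicate, after 3 min pre-incubation of the reaction solution. Reactions stopped with acetonitrile/isopropanol (4:1) containing internal standards; compound and formed brexpiprazole quantified against 0.01–1 μmol/L calibration samples.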

Compound	Concentration of brexpiprazole formed [2] [nM]	Concentration of evaluation compound decreased [2] [nM]	cytotoxicity at 24 h, 300 µM [1] [%]
O=c1ccc2ccc(OCCCC[N+]3(COP(=O)([O-])OCCCCCCCBr)CCN(c4cccc5sccc45)CC3)cc2[nH]1 [EX 64, (4-(benzo[b]thiophen-4-yl)-1-(4-((2-oxo-1,2-dihydroquinolin-7-yl)oxy)butyl)piperazin-1-ium-1-yl)methyl (7-bromoheptyl) phosphate]	0	30	9
CSCCCOP(=O)([O-])OC[N+]1(CCCCOc2ccc3ccc(=O)[nH]c3c2)CCN(c2cccc3sccc23)CC1 [EX 66, (4-(benzo[b]thiophen-4-yl)-1-(4-((2-oxo-1,2-dihydroquinolin-7-yl)oxy)butyl)piperazin-1-ium-1-yl)methyl (3-(methylthio)propyl) phosphate]	0	170	-2
CC1(C)OCC(C(=O)OCOP(=O)([O-])OC[N+]2(CCCCOc3ccc4ccc(=O)[nH]c4c3)CCN(c3cccc4sccc34)CC2)CO1 [EX 67, (4-(benzo[b]thiophen-4-yl)-1-(4-((2-oxo-1,2-dihydroquinolin-7-yl)oxy)butyl)piperazin-1-ium-1-yl)methyl (((2,2-dimethyl-1,3-dioxane-5-carbonyl)oxy)methyl) phosphate]	0	90	1
O=C(O)CCCC(=O)OCOP(=O)([O-])OC[N+]1(CCCCOc2ccc3ccc(=O)[nH]c3c2)CCN(c2cccc3sccc23)CC1 [EX 70, (4-(benzo[b]thiophen-4-yl)-1-(4-((2-oxo-1.2-dihydroquinolin-7-yl)oxy)butyl)piperazin-1-ium-1-yl)methyl (((4-carboxybutanoyl)oxy)methyl) phosphate]	0	0	-7
CC(C)(CC(=O)O)CC(=O)OCOP(=O)([O-])OC[N+]1(CCCCOc2ccc3ccc(=O)[nH]c3c2)CCN(c2cccc3sccc23)CC1 [EX 71]	0	100	-9
CC1(C)OCC(NC(=O)CCCC(=O)OCOP(=O)([O-])OC[N+]2(CCCCOc3ccc4ccc(=O)[nH]c4c3)CCN(c3cccc4sccc34)CC2)CO1 [EX 74, (4-(benzo[b]thiophen-4-yl)-1-(4-((2-oxo-1,2-dihydroquinolin-7-yl)oxy)butyl)piperazin-1-ium-1-yl)methyl (((5-((2.2-dimethyl-1,3-dioxan-5-yl)amino)-5-oxopentanoyl)oxy)methyl) phosphate]	0	50	-1
COCCOC(=O)CCCCCCCCCCC(=O)OCOP(=O)([O-])OC[N+]1(CCCCOc2ccc3ccc(=O)[nH]c3c2)CCN(c2cccc3sccc23)CC1 [EX 77, (4-(benzo[b]thiophen-4-yl)-1-(4-((2-oxo-1,2-dihydroquinolin-7-yl)oxy)butyl)piperazin-1-ium-1-yl)methyl (((12-(2-methoxyethoxy)-12-oxododecanoyl)oxy)methyl) phosphate]	0	110	6
CC(=O)Oc1ccccc1C(=O)OCOP(=O)([O-])OC[N+]1(CCCCOc2ccc3ccc(=O)[nH]c3c2)CCN(c2cccc3sccc23)CC1 [EX 80, (2-acetoxybenzoyl)oxy)methyl ((4-(benzo[b]thiophen-4-yl)-1-(4-((2-oxo-1,2-dihydroquinolin-7-yl)oxy)butyl)piperazin-1-ium-1-yl)methyl) phosphate]	0	170	7
Cc1ncccc1C(=O)OCOP(=O)([O-])OC[N+]1(CCCCOc2ccc3ccc(=O)[nH]c3c2)CCN(c2cccc3sccc23)CC1 [EX 81, (4-(benzo[b]thiophen-4-yl)-1-(4-(2-oxo-1,2-dihydroquinolin-7-yl)oxy)butyl)piperazin-1-ium-1-yl)methyl (((2-methylnicotinoyl)oxy)methyl) phosphate]	0	-30	8
COCCn1nc(C(=O)OCOP(=O)([O-])OC[N+]2(CCCCOc3ccc4ccc(=O)[nH]c4c3)CCN(c3cccc4sccc34)CC2)c2ccccc21 [EX 82, (4-(benzo[b]thiophen-4-yl)-1-(4-((2-oxo-1.2-dihydroquinolin-7-yl)oxy)butyl)piperazin-1-ium-1-yl)methyl (((1-(2-methoxyethyl)-1H-indazole-3-carbonyl)oxy)methyl) phosphate]	0	20	-2
COC(=O)[C@H](COP(=O)([O-])OC[N+]1(CCCCOc2ccc3ccc(=O)[nH]c3c2)CCN(c2cccc3sccc23)CC1)NC(=O)OC(C)(C)C [EX 83, (S)-(4-(benzo[b]thiophen-4-yl)-1-(4-((2-oxo-1,2-dihydroquinolin-7-yl)oxy)butyl)piperazin-1-ium-1-yl)methyl (2-(tert-butoxycarbonyl)amino)-3-methoxy-3-oxopropyl) phosphate]	0	70	-5
O=c1ccc2ccc(OCCCC[N+]3(COP(=O)([O-])OCCCOc4ccccc4)CCN(c4cccc5sccc45)CC3)cc2[nH]1 [EX 84, 4-(benzo[b]thiophen-4-yl)-1-(4-((2-oxo-1,2-dihydroquinolin-7-yl)oxy)butyl)piperazin-1-ium-1-yl)methyl (3-phenoxypropyl) phosphate]	0	10	1
CCCCOCCOP(=O)([O-])OC[N+]1(CCCCOc2ccc3ccc(=O)[nH]c3c2)CCN(c2cccc3sccc23)CC1 [EX 96, (4-(benzo[b]thiophen-4-yl)-1-(4-((2-oxo-1,2-dihydroquinolin-7-yl)oxy)butyl)piperazin-1-ium-1-yl)methyl (2-butoxyethyl) phosphate]	0	30	12

The next lines start with results.

Concentration of brexpiprazole formed [2] [nM]	Concentration of evaluation compound decreased [2] [nM]	Compound	cytotoxicity at 24 h, 300 µM [1] [%]
0	-30	CC(C)COP(=O)([O-])OC[N+]1(CCCCOc2ccc3ccc(=O)[nH]c3c2)CCN(c2cccc3sccc23)CC1 [EX 90, (4-(benzo[b]thiophen-4-yl)-1-(4-(2-oxo-1,2-dihydroquinolin-7-yl)oxy)butyl)piperazin-1-ium-1-yl)methyl isobutyl phosphate]	-6
0	120	O=c1ccc2ccc(OCCCC[N+]3(COP(=O)([O-])OCC4CC4)CCN(c4cccc5sccc45)CC3)cc2[nH]1 [EX 91, (4-(benzo[b]thiophen-4-yl)-1-(4-((2-oxo-1,2-dihydroquinolin-7-yl)oxy)butyl)piperazin-1-ium-1-yl)methyl (cyclopropylmethyl) phosphate]	17
0	110	O=c1ccc2ccc(OCCCC[N+]3(COP(=O)([O-])OCCCCCO)CCN(c4cccc5sccc45)CC3)cc2[nH]1 [EX 92]	-7
0	-10	O=c1ccc2ccc(OCCCC[N+]3(COP(=O)([O-])OCCOCCO)CCN(c4cccc5sccc45)CC3)cc2[nH]1 [EX 93, (4-(benzo[b]thiophen-4-yl)-1-(4-((2-oxo-1,2-dihydroquinolin-7-yl)oxy)butyl)piperazin-1-ium-1-yl)methyl (2-(2-hydroxyethoxy)ethyl) phosphate]	-6
0	-70	CCOCCOP(=O)([O-])OC[N+]1(CCCCOc2ccc3ccc(=O)[nH]c3c2)CCN(c2cccc3sccc23)CC1 [EX 94, (4-(benzo[b]thiophen-4-yl)-1-(4-((2-oxo-1,2-dihydroquinolin-7-yl)oxy)butyl)piperazine-1-ium-1-yl)methyl (2-ethoxyethyl) phosphate]	-8
0	-10	CCCOCCOP(=O)([O-])OC[N+]1(CCCCOc2ccc3ccc(=O)[nH]c3c2)CCN(c2cccc3sccc23)CC1 [EX 95, (4-(benzo[b]thiophen-4-yl)-1-(4-((2-oxo-1.2-dihydroquinolin-7-yl)oxy)butyl)piperazin-1-ium-1-yl)methyl (2-propoxyethyl) phosphate]	-4
0	90	CCOCCCOP(=O)([O-])OC[N+]1(CCCCOc2ccc3ccc(=O)[nH]c3c2)CCN(c2cccc3sccc23)CC1 [EX 97, (4-(benzo[b]thiophen-4-yl)-1-(4-((2-oxo-1.2-dihydroquinolin-7-yl)oxy)butyl)piperazin-1-ium-1-yl)methyl (3-ethoxypropyl) phosphate]	-2
0	-20	CCOCCOCCOP(=O)([O-])OC[N+]1(CCCCOc2ccc3ccc(=O)[nH]c3c2)CCN(c2cccc3sccc23)CC1 [EX 98, (4-(benzo[b]thiophen-4-yl)-1-(4-((2-oxo-1,2-dihydroquinolin-7-yl)oxy)butyl)piperazin-1-ium-1-yl)methyl (2-(2-ethoxyethoxy)ethyl) phosphate]	-8
